Like-named read-outs stand apart in the source and are kept apart here.

Experiment [1] has as its target human KDR protein in HEK-293 cells (Homo sapiens (Human), UniProt P35968). Kind of experiment: KDR Cell Assay (phospho-KDR in HEK-293 cells expressing inducible KDR). In kind it is cell-based. Conditions: pKDR Cell HEK 10% FBS IC50, HEK-293 cells expressing inducible KDR, VEGF stimulated. A digest of the protocol:
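HEK-293 cells with inducible human KDR were treated with compound for 1 h in DMEM (0.25% DMSO final), then lysed. Phospho-KDR was quantified by Meso Scale immunoassay, expressed as percent of control, and IC50 taken where a 4-parameter logistic fit crossed 50 POC.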

The target of experiment [2] is Kif5b-RET fusion protein in HEK-293 cells (Homo sapiens, UniProt P07949). In words: cell-based.
For experiment [3], the target named is N-terminal GST tagged recombinant human RET cytoplasmic domain (aa 658-end), wild type RET kinase (Homo sapiens (Human), UniProt P07949). Kind of experiment: RET Enzyme Assay (HTRF KinEASE-TK), wild type RET. In kind it is biochemical. The settings on record: wild type RET, 1 mM ATP.
[4] abbreviates: HEK-293 cells expressing Kif5b-RET, read-out: KIF5B-RET pTYR1062 Cell IC50.
The mark [5] stands for this setting: HEK-293 cells expressing Kif5b-RET, phospho-RET(Tyr1062), read-out: KIF5B-RET pTYR1062 Cell IC50.

Chain of Kif5b-RET fusion protein in HEK-293 cells (P07949 29-1114 limits assumed): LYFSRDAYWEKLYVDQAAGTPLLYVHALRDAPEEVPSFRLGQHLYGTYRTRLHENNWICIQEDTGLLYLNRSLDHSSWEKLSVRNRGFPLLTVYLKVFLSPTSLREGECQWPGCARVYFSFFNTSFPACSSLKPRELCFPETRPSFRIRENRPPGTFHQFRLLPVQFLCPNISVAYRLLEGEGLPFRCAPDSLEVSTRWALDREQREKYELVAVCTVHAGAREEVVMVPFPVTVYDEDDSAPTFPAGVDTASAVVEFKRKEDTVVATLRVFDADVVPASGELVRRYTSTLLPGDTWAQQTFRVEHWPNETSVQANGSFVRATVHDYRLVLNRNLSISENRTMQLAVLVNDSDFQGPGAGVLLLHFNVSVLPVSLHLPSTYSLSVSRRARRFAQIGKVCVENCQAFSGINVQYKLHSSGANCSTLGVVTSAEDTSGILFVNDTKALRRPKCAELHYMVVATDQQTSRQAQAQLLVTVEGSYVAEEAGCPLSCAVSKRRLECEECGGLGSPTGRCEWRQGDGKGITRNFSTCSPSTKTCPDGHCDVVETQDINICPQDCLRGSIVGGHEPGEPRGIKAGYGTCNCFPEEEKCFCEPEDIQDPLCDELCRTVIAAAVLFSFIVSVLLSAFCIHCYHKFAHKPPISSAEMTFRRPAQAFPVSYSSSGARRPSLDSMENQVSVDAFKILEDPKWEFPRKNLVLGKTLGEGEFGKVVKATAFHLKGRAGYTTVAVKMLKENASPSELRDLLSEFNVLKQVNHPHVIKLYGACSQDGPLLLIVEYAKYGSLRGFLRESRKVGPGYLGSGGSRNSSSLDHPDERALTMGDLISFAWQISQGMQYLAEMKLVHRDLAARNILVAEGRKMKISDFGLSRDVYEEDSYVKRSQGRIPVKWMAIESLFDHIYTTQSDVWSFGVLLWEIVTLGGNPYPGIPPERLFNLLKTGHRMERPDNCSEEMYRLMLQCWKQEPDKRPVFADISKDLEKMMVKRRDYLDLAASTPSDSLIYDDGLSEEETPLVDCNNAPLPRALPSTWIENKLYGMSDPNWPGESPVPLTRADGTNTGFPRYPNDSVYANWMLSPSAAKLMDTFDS
Chain of human KDR protein in HEK-293 cells (P35968 20-1356): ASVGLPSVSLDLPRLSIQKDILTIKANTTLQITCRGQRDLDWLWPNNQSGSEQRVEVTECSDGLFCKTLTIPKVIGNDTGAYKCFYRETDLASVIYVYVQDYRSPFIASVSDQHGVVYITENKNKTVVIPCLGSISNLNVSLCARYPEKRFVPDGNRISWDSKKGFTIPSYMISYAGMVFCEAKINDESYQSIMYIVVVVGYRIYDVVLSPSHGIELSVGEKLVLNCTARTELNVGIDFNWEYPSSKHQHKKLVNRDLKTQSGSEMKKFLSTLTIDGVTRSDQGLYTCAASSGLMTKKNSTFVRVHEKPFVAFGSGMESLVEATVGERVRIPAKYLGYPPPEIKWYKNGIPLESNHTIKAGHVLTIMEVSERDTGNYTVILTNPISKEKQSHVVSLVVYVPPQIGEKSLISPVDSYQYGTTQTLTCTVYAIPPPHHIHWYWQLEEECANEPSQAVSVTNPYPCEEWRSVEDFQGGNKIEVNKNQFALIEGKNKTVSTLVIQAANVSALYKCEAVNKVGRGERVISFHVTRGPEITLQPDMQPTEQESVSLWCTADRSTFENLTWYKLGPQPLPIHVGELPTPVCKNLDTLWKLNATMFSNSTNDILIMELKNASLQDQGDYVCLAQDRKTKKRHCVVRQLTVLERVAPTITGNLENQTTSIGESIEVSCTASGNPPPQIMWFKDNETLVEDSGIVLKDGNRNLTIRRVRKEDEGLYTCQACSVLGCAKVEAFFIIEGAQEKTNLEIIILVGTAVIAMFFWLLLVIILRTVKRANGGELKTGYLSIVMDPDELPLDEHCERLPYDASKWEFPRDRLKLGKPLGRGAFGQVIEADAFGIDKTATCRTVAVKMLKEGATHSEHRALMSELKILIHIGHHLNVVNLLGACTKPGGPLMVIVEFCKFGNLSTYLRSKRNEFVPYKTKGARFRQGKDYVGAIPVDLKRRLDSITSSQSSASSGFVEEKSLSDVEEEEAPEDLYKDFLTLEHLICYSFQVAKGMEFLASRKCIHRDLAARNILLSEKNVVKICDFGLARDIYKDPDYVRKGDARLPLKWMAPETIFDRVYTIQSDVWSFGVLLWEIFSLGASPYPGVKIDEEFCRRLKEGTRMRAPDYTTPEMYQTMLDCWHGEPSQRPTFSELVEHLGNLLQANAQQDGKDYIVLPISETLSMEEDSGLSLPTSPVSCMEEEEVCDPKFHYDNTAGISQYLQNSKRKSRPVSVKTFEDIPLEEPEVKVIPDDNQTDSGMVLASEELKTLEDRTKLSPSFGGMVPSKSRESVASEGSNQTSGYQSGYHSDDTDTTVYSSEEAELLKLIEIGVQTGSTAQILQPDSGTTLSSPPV
Chain of N-terminal GST tagged recombinant human RET cytoplasmic domain (aa 658-end), wild type RET kinase (P07949 658-1114): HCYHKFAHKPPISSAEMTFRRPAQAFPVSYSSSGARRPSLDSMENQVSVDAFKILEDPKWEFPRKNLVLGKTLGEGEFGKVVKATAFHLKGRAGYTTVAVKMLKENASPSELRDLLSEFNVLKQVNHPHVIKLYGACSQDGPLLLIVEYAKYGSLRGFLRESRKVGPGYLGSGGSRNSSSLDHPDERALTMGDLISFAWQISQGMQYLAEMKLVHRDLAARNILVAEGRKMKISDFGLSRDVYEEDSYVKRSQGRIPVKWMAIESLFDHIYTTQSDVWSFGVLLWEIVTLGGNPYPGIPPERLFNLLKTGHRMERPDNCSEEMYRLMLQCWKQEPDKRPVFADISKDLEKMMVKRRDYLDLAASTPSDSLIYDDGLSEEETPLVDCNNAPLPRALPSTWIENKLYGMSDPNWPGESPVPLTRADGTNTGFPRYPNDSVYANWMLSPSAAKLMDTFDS

In the case of `COC(CN1CCN(c2ccc(-c3cc(-c4cnn(C)c4)cn4ncc(C#N)c34)cn2)CC1)C(C)C` (stereo not drawn) [Example 413, 4-(6-(4-(2-methoxy-3-methylbutyl)piperazin-1-yl)pyridin-3-yl)-6-(1-methyl-1H-pyrazol-4-yl)pyrazolo[1,5-a]pyridine-3-carbonitrile], the half-maximal inhibitory concentration (IC50) in experiment [1] stood at 0.549 µM; in experiment [2] (setting [4]) it was 0.0291 µM; in experiment [3], 0.0156 µM.
For the molecule `Cn1cc(-c2cc(-c3ccc(N4CCN(S(C)(=O)=O)CC4)nc3)c3c(Cl)cnn3c2)cn1` [Example 332, 3-chloro-6-(1-methyl-1H-pyrazol-4-yl)-4-(6-(4-(methylsulfonyl)piperazin-1-yl)pyridin-3-yl)pyrazolo[1,5-a]pyridine], the half-maximal inhibitory concentration (IC50) in experiment [1] (10% FBS) was determined as 0.207 µM; in experiment [2] (setting [5]), 0.047 µM; in experiment [3], 0.0162 µM.
On to `CCN(C)C(=O)N1CCN(c2ccc(-c3cc(-c4cnn(C)c4)cn4ncc(C#N)c34)cn2)CC1` [Example 136, 4-(5-(3-cyano-6-(1-methyl-1H-pyrazol-4-yl)pyrazolo[1,5-a]pyridin-4-yl)pyridin-2-yl)-N-ethyl-N-methylpiperazine-1-carboxamide], for which the IC50 in experiment [1] (10% FBS) was found to be 1.58 µM; in experiment [2] (setting [5]), 0.0119 µM; in experiment [3], 0.0091 µM.
As to `CCC1(C(=O)N[C@H](C)C(F)(F)F)CCN(c2ccc(-c3cc(-c4cnn(C)c4)cn4ncc(C#N)c34)cn2)CC1` [Example 257, (R)-1-(5-(3-cyano-6-(1-methyl-1H-pyrazol-4-yl)pyrazolo[1,5-a]pyridin-4-yl)pyridin-2-yl)-4-ethyl-N-(1,1,1-trifluoropropan-2-yl)piperidine-4-carboxamide], the IC50 in experiment [1] (10% FBS) was found to be 1.35 µM; in experiment [2] (setting [5]) it was 0.0093 µM; in experiment [3], 0.0149 µM.
`N#Cc1cnn2cc(-c3cnn(C(F)F)c3)cc(-c3ccc(N4CCN(Cc5ccccn5)CC4)nc3)c12` [Example 586, 6-(1-(difluoromethyl)-1H-pyrazol-4-yl)-4-(6-(4-(pyridine-2-ylmethyl)piperazin-1-yl)pyridin-3-yl)pyrazolo[1,5-a]pyridine-3-carbonitrile]: the IC50 in experiment [1] is no less than 5 µM; in experiment [2] (setting [4]), 0.0156 µM; in experiment [3] it was 0.0052 µM.
For `C[C@@H](CO)Cn1cc(-c2cc(-c3ccc(N4CCN(Cc5ccccc5)CC4)nc3)c3c(C#N)cnn3c2)cn1` [Example 592, (R)-4-(6-(4-benzylpiperazin-1-yl)pyridin-3-yl)-6-(1-(3-hydroxy-2-methylpropyl)-1H-pyrazol-4-yl)pyrazolo[1,5-a]pyridine-3-carbonitrile], the half-inhibitory concentration (IC50) is 0.283 µM in experiment [1], 0.0174 µM in experiment [2] (setting [4]) and 0.0161 µM in experiment [3].
Turning to `CC(C)NS(=O)(=O)C1CCN(c2ccc(-c3cc(-c4cnn(C)c4)cn4ncc(C#N)c34)cn2)CC1` [Example 569, 1-(5-(3-cyano-6-(1-methyl-1H-pyrazol-4-yl)pyrazolo[1,5-a]pyridin-4-yl)pyridin-2-yl)-N-isopropylpiperidine-4-sulfonamide], the IC50 in experiment [1] worked out at 0.0022 µM; in experiment [2] (setting [4]) it was 0.0028 µM; in experiment [3], 0.0062 µM.
Regarding `COc1ncc(F)cc1CN1CCN(c2ccc(-c3cc(-c4cnn(C)c4)cn4ncc(C#N)c34)cn2)CC1` [Example 457, 4-(6-(4-((5-fluoro-2-methoxypyridin-3-yl)methyl)piperazin-1-yl)pyridin-3-yl)-6-(1-methyl-1H-pyrazol-4-yl)pyrazolo[1,5-a]pyridine-3-carbonitrile], the IC50 came to 0.877 µM in experiment [1], 0.0195 µM in experiment [2] (setting [4]) and 0.0131 µM in experiment [3].
For `Cn1cc(-c2cc(-c3ccc(N4CCN(S(=O)(=O)NC(C)(C)C)CC4)nc3)c3c(C#N)cnn3c2)cn1` [Example 137, N-(tert-butyl)-4-(5-(3-cyano-6-(1-methyl-1H-pyrazol-4-yl)pyrazolo[1,5-a]pyridin-4-yl)pyridin-2-yl)piperazine-1-sulfonamide], the IC50 in experiment [1] (10% FBS) came to 0.0713 µM; in experiment [2] (setting [5]), 0.0052 µM; in experiment [3], 0.0083 µM.
On to `COc1ccc(CN2CCN(c3ccc(-c4cc(-c5cnn(C)c5)cn5ncc(C#N)c45)cn3)CC2)nc1` [Example 458, 4-(6-(4-((5-methoxypyridin-2-yl)methyl)piperazin-1-yl)pyridin-3-yl)-6-(1-methyl-1H-pyrazol-4-yl)pyrazolo[1,5-a]pyridine-3-carbonitrile], for which the IC50 is 0.324 µM in experiment [1], 0.0024 µM in experiment [2] and 0.0069 µM in experiment [3].
Regarding `CCC(C)(O)CC(=O)N1CCN(c2ccc(-c3cc(-c4cnn(C)c4)cn4ncc(C#N)c34)cn2)CC1` (stereo not drawn) [Example 63, 4-(6-(4-(3-hydroxy-3-methylpentanoyl)piperazin-1-yl)pyridin-3-yl)-6-(1-methyl-1H-pyrazol-4-yl)pyrazolo[1,5-a]pyridine-3-carbonitrile], the concentration for half-maximal inhibition (IC50) in experiment [1] (10% FBS) is 0.527 µM; in experiment [2] (setting [5]) it was 0.0082 µM; in experiment [3], 0.0115 µM.

Source of the values: patent publication US10023570B2 (Array BioPharma, Inc., priority 2015, dated 2018).
